Test results taken from ChEMBL document CHEMBL3244129, “Quinolone antimicrobial agents. 1. Versatile new synthesis of 1-alkyl-1,4-dihydro-4-oxo-3-quinolinecarboxylic acids” (1978).
≈ marks a conversion by molar mass, not a printed value.

How the values were obtained:
Staphylococcus aureus = assay: Antimicrobial activity against Staphylococcus aureus ATCC […] assessed as growth inhibition by agar dilution-streak method; format: functional
Escherichia coli = assay: Antimicrobial activity against Escherichia coli 9637 assessed as growth inhibition by agar dilution-streak method; format: functional
Klebsiella pneumoniae = assay: Antimicrobial activity against Klebsiella pneumoniae 10031 assessed as growth inhibition by agar dilution-streak method; format: functional
[1] = tested on: Mycolicibacterium smegmatis; assay: Antimicrobial activity against Mycobacterium smegmatis 607 assessed as growth inhibition by agar dilution-streak method; format: functional
Candida albicans = assay: Antimicrobial activity against Candida albicans 10231 assessed as growth inhibition by agar dilution-streak method; format: functional
Salmonella gallinarum = assay: Antimicrobial activity against Salmonella gallinarum 9184 assessed as growth inhibition by agar dilution-streak method

Structure (SMILES)	MIC (Staphylococcus aureus) [µg/mL]	MIC (Escherichia coli) [µg/mL]	MIC (Klebsiella pneumoniae) [µg/mL]	MIC [1] [µg/mL]	MIC (Candida albicans) [µg/mL]	MIC (Salmonella gallinarum) [µg/mL]
CCn1cc(C(=O)O)c(=O)c2ccc(C)cc21	40 (≈ 173 µM)	2.5 (≈ 10.8 µM)	10 (≈ 43.2 µM)	> 100	> 100	1.25 (≈ 5.41 µM)
CCn1cc(C(=O)O)c(=O)c2cc(C)ccc21	40 (≈ 173 µM)	20 (≈ 86.5 µM)	> 100	> 100	> 100	20 (≈ 86.5 µM)
CCn1cc(C(=O)O)c(=O)c2cccc(C)c21	> 100	> 100	> 100	> 100	> 100	> 100
CCn1cc(C(=O)O)c(=O)c2cc(Cl)ccc21	100 (≈ 397 µM)	20 (≈ 79.5 µM)	10 (≈ 39.7 µM)	100 (≈ 397 µM)	> 40	20 (≈ 79.5 µM)
CCn1c(O)c(C(=O)O)c(=O)c2cc3c(cc21)OCO3	> 100	> 100	> 100	> 100	> 100	> 100
CCn1c(C)c(C(=O)O)c(=O)c2cc3c(cc21)OCO3	> 100	> 100	> 100	> 100	> 100	> 100
CCn1cc(C(=O)O)c(=O)c2cc3c(cc21)OCO3 [OXOLINIC ACID]	5 (≈ 19.1 µM)	1.25 (≈ 4.79 µM)	< 0.625	> 40	> 40	1.25 (≈ 4.79 µM)
